Source: article PMC4293281 (Bioorganic & medicinal chemistry, 2014)
In brackets after ≈: the same amount, converted by molar mass.

Key:
SV40 T Ag = SV40 T Ag (Simian virus 40, UniProt P03070); assay: steady state ATPase assay with SV40 T Ag; type: biochemical; conditions: for inhibition of SV40 T Ag ATPase activity at 100 μM: final concentration 100 μM, percent activity relative to T Ag without inhibitor
[1] = aqueous solubility by LC-HRMS; type: physicochemical; conditions: distilled water, 30 °C, thermodynamic from solid
SV40 = SV40 viral DNA replication assay in CV1 cells; type: cell-based, Simian Virus 40 in CV1 monkey kidney cells; conditions: monkey kidney cells, range of concentrations
human Hsp70 = human Hsp70 (Homo sapiens, UniProt P0DMV8); assay: steady state ATPase assay with human Hsp70; type: biochemical
Sequence of human Hsp70 (P0DMV8 whole entry): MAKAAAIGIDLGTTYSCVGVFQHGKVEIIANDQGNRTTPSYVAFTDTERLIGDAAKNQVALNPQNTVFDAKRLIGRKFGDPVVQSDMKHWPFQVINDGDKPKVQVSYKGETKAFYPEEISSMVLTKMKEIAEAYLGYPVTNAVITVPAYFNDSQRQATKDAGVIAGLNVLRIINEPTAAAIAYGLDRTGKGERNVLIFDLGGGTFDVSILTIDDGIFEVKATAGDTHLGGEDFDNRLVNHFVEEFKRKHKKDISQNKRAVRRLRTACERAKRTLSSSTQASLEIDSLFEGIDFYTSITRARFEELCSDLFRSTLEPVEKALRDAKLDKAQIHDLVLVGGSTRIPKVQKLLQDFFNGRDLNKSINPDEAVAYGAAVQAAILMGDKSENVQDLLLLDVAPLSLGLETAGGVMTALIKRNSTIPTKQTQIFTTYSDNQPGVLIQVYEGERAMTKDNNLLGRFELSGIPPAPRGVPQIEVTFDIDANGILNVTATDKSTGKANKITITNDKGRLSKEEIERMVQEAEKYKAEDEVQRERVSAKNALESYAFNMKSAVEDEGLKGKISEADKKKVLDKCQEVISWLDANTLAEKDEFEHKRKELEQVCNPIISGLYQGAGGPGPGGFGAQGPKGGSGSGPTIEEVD

[2] = target: human Hsp70 in the presence of a J domain containing yeast protein (Hlj1) (Homo sapiens, UniProt P0DMV8); assay: steady state ATPase assay, Hsp70 stimulated by J domain protein Hlj1; type: biochemical
Sequence of human Hsp70 in the presence of a J domain containing yeast protein (Hlj1) (P0DMV8 whole entry): as above

[3] = compound stability in male mouse liver microsomes; type: in vitro ADME
[4] = target: human Hsp70 in the presence of a human J domain-containing protein (Hdj2) (Homo sapiens, UniProt P0DMV8); assay: steady state ATPase assay, Hsp70 stimulated by J domain protein Hdj2; type: biochemical; conditions: 100 μM versus DMSO control, 60-min time course
Sequence of human Hsp70 in the presence of a human J domain-containing protein (Hdj2) (P0DMV8 whole entry): as above

HEK293 cells = assay: HEK293 cell viability; type: cell-based, human; conditions: 20 h incubation, Cell Titer-Glo

Sequence of SV40 T Ag (P03070 whole entry): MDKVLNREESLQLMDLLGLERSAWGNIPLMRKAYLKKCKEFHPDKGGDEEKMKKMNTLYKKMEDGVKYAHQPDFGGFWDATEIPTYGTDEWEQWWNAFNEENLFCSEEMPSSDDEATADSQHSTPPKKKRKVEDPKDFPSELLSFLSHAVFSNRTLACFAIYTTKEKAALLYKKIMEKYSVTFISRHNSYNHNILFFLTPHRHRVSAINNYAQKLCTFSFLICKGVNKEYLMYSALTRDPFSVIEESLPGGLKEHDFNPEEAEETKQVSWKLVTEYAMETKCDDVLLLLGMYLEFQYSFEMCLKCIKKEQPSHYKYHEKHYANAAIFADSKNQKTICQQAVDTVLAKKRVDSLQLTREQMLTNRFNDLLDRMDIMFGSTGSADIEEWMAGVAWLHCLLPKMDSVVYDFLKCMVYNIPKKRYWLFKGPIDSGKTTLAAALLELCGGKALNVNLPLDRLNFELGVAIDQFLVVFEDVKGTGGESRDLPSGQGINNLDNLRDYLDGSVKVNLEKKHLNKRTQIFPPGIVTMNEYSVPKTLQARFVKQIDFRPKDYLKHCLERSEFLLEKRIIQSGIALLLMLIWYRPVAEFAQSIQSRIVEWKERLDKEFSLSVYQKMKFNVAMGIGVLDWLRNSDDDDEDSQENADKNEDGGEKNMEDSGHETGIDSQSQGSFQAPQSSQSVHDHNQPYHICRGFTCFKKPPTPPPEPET

| SMILES | IC50 (SV40 T Ag) [µM] | solubility at 24 h [1] [µg/mL] | inhibition of SV40 T Ag ATPase activity at 100 μM (SV40 T Ag) | inhibition of SV40 replication (viral DNA by qPCR) (SV40) | other results |
| --- | --- | --- | --- | --- | --- |
| CC1=C(C(=O)OCc2ccccc2)C(c2ccc(-c3ccccc3C)cc2)NC(=O)N1CCCCCc1nnn[nH]1 (stereo not drawn) [LR340-006, Benzyl 1-(5-(1H-tetrazol-5-yl)pentyl)-6-methyl-4-(2′-methyl-[1,1′-biphenyl]-4-yl)-2-oxo-1,2,3,4-tetrahydropyrimidine-5-carboxylate] | ~50 |  |  |  | inhibition of SV40 T Ag ATPase activity, titration (SV40 T Ag; titration at 10, 30 and 100 μM): most potent |
| CC1=C(C(=O)OCc2ccccc2)C(c2ccc(-c3ccccc3)cc2)NC(=O)N1Cc1ccc(-c2nnn[nH]2)cc1 (stereo not drawn) [ML282-56, Benzyl 1-(4-(1H-tetrazol-5-yl)benzyl)-4-([1,1′-biphenyl]-4-yl)-6-methyl-2-oxo-1,2,3,4-tetrahydropyrimidine-5-carboxylate] | ~50 | 14.4 ± 0.5 (≈ 25.9 µM) | inhibited T Ag ATPase activity | inhibited viral replication |  |
| CC1=C(C(=O)OCc2ccccc2)C(c2ccc(-c3ccccc3)cc2)NC(=O)N1CCCCCC(=O)NS(C)(=O)=O (stereo not drawn) [ML282-66, Benzyl 4-([1,1′-biphenyl]-4-yl)-6-methyl-1-(6-(methylsulfonamido)-6-oxohexyl)-2-oxo-1,2,3,4-tetrahydropyrimidine-5-carboxylate] |  |  | inhibited T Ag ATPase activity |  | inhibition of SV40 T Ag ATPase activity at 30 μM (SV40 T Ag; titration, 30 μM): reduced compared to ML282-56 |
| CC1=C(C(=O)OCc2ccccc2)C(c2ccc(-c3ccccc3C)cc2)NC(=O)N1Cc1ccc(-c2nnn[nH]2)cc1 (stereo not drawn) [SMAL, Benzyl 1-(4-(1H-tetrazol-5-yl)benzyl)-6-methyl-4-(2′-methyl-[1,1′-biphenyl]-4-yl)-2-oxo-1,2,3,4-tetrahydropyrimidine-5-carboxylate] | ~5 | 62.4 ± 3.1 (≈ 109 µM) |  | inhibited viral replication | IC50 (human Hsp70): ~24 µM; inhibition of endogenous Hsp70 ATPase activity at 30 μM (human Hsp70; final concentration 30 μM versus DMSO control): inhibited the endogenous activity of Hsp70; IC50 [2]: > 30 µM; compound remaining after 60 min incubation ([3]; male mouse liver microsomes, NADPH, 1 h): ~ 68%; stability in liver microsomes ([3]; murine liver microsomes): quite stable; inhibition of Hdj2 activation of Hsp70 ATPase [4]: stronger than MAL2-11B tetrazole |
| CN[C@@H]1C[C@H]2O[C@@](C)([C@@H]1OC)n1c3ccccc3c3c4c(c5c6ccccc6n2c5c31)C(=O)NC4 [Staurosporine] |  |  |  |  | LD50 (HEK293 cells): < 3 µM |
